Source: PMC5654082 (Malaria Journal, 2017)
Where a name gives a salt, the structure may show the parent alone.

Key:
MATE2-K = MATE2-K (Homo sapiens, UniProt Q86VL8); assay: Export assay in HEK293 cells co-transduced with OCT1 and MATE2-K; type: cell-based; parameters: host or cells: HEK293, baculovirus transduction (CMV promoter), transient; co-transduced with human OCT1 in the export assay
Protocol: (§1) HEK293 cells were modified to transiently express (a combination of) human OCT1, OCT2, MATE1, MATE2-K, or eYFP. Briefly, cDNA of the respective genes was cloned downstream of a CMV promoter into a baculovirus, of which passage three was used to transduce HEK293 cells. These cells were seeded in poly-D-lysine coated 24- or 96-wells plates and grown in a 37 °C incubator at 5% CO2. Growth was initiated at ~ 25% confluency using 375 or 125 μL cell and complete medium (DMEM + GlutaMAX™-I supplemented with 10% fetal bovine serum) suspension per well, respectively. After 24 h, cells were transduced with 30 µL virus (10 µL virus + 20 µL complete medium in case of 96-wells plates) or 2 × 15 µL virus for cells that required simultaneous expression of two transporters. Finally, 195 µL sodium butyrate (45 µL for 96-wells plates) was added to a final concentration of 2 mM to enhance protein expression.
Import and export of PG and cycloguanil (CG) was assessed by single and double transduced HEK293 cells. In short, HEK293 cells seeded in 24-wells plates as described, were transduced separately with eYFP, OCT1, OCT2, MATE1 or MATE2-K, or with combinations of these viruses. Following the same procedure as for the cellular import assay described above, the import of 100 µM PG and CG was measured after 5 min incubation and data was plotted as mean pmol/mg/min ± SEM. For export (following OCT1 uptake) of 1 µM PG after 1 min of transport at pH 7.4, percentage of remaining cellular PG (compared to background) was plotted as mean ± SEM in GraphPad version 5.03. Significant reduction in uptake (i.e. export by MATEs) was determined using ln transformation and a one-way repeated measures ANOVA with Dunnet’s post test.
Anti-malarial concentration in the cell lysates was quantified using an LC–MS/MS system consisting of a UPLC, a binary solvent manager, a vacuum degasser and an autosampler, coupled to a Xevo TQ-S micro triple quadrupole mass spectrometer. Liquid chromatographic separation of the samples (stored at 10 °C; injection volume of 10 µL) was performed at 40 °C using a HSS T3 analytical column (1.8 μm; 100 × 2.1 mm) coupled to a VanGuard HSS T3 pre-column (1.8 µm; 5 × 2.1 mm). […] Positive ion mode was used with selected reaction monitoring (SRM) for the quantitative analysis of AMO, ART, ATO, CQ, CG, DHA, LUM, MQ, PQ, PG, and QN. The peak area of the most abundant product ion was used for quantification.

human OCT1 = biological target: T1, human OCT1 (Homo sapiens, UniProt O15245); assay: Inhibition of OCT1-mediated ASP uptake in transduced HEK293 cells; type: cell-based; details: 50 µM anti-malarial, 10 µM ASP, 10 min, 37 °C; relative to solvent control fixed at 100%
T1 construct: host or cells: HEK293, baculovirus transduction (CMV promoter), transient
T1 sequence (O15245 1-554): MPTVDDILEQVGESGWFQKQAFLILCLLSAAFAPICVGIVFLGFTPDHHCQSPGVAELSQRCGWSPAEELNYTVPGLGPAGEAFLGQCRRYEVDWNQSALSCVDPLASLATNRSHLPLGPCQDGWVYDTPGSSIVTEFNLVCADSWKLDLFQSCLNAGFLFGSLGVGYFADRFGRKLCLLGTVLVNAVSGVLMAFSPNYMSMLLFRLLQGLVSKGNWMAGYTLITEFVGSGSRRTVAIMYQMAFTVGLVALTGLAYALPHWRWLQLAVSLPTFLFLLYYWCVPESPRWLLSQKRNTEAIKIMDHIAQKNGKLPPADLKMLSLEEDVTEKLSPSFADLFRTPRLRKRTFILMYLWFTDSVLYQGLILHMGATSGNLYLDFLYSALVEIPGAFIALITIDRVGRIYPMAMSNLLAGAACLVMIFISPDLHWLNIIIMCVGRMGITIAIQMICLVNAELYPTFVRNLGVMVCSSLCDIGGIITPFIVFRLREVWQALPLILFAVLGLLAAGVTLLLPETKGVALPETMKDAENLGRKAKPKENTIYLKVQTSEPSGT
Protocol: as §1
AMO (10 mM), ASP (1 mM), CQ (10 mM), PQ (10 mM) and PG (10 mM) were dissolved in MilliQ water. ART (10 mM), ATO (10 mM), DHA (10 mM), LUM (10 mM), MQ (10 mM), NMQ (20 mM), PYR (10 mM), QN (10 mM) were dissolved in DMSO. All compound stocks were stored at − 20 °C. Inhibition of OCT1- or OCT2-mediated ASP uptake by anti-malarials was performed in poly-D-lysine coated 96-wells plates 2 or 3 days following HEK293 cell transduction. In short, cells were washed with 125 µL 37 °C HBSS containing 10 mM HEPES, pH 7.4. Then, a 50 µL mixture of ASP (10 µM) and anti-malarial compound (25, 50 or 100 µM) in HBSS buffer (pH 7.4) was added to each well and incubated for 10 min at 37 °C. ASP transport was stopped by washing with 125 µL ice-cold HBSS-HEPES buffer supplemented with 0.5% BSA. Following a second wash with 125 µL ice-cold HBSS-HEPES buffer, cells were lysed with 125 µL 1 M NaOH and ASP was excited at a wavelength of 485 nm and fluorescence was detected at an emission wavelength of 535 nm using the Victor X3 multimode plate reader.
For each compound, a range of seven concentrations was used to determine the concentration at which ASP uptake was inhibited half maximally (IC50). At least three independent experiments (4 for QN) were performed for each drug in triplicate as described above. Inhibition curves were plotted by nonlinear regression analyses of the data using GraphPad Prism version 5.03. […] To generate the final dose–response inhibition curve per anti-malarial, percentage of uptake was averaged for each drug concentration per experiment and the resulting mean ± SEM corresponding to three or four independent experiments were plotted.

[1] = parameters: method as in earlier work; details: unchanged PG; cited from earlier work

Chain of MATE2-K (Q86VL8 1-566 isoform Q86VL8-3): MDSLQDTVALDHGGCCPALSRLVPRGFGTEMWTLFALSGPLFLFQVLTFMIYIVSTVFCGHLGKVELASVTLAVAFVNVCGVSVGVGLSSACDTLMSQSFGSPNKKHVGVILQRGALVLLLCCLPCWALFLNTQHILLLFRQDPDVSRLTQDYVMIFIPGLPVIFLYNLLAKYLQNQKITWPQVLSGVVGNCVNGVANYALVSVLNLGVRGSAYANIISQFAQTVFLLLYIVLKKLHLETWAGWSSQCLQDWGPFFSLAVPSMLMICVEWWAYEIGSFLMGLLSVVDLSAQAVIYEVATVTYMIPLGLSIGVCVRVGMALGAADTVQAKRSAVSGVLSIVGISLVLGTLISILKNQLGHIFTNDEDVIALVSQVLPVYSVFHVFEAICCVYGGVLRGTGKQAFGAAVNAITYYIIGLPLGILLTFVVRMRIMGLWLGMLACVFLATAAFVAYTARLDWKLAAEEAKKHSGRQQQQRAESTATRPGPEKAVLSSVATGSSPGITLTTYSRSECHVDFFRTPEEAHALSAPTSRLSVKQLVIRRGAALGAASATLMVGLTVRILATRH

[H]/N=C(\N/C(=N/[H])Nc1ccc(Cl)cc1)NC(C)C [Proguanil, proguanil hydrochloride]
Intracellular concentration, percentage of its initial value (MATE2-K; MATE2-K co-transduced with OCT1): 56% | Relative decrease in uptake by MATE2-K (MATE2-K; OCT1/MATE2-K versus eYFP/OCT1 cells, 1 µM, 1 min): 44% | Uptake, percentage of eYFP control cells (MATE2-K; cells expressing OCT1 and MATE2-K, 1 µM, 1 min, pH 7.4): 470 ± 80% | Fraction exported by MATE2-K (MATE2-K; compared to eYFP/OCT1 transduced cells, 1 µM, 1 min): approximately 50% | Relative ASP uptake (OCT1-mediated) (human OCT1): 60 ± 7% | Excretion into the urine [1]: < 40%
